Experimental data reported in patent US4698350A, “1-ethyl-6-fluoro-1,4-dihydro- 7-(2,6-dimethyl-4-pyridinyl)-4-oxo-3-quinolinecarboxylic acid and antibacterial use thereof” (Sterling Drug Inc., priority 1984, dated 1987).
≈ marks a conversion by molar mass, not a printed value. Where two headings read alike, the source gives them in different places.

What was measured:
[1] = system: Staphylococcus aureus Smith; experiment: Mouse protection test, S. aureus Smith infection, single dose; format: in vivo, ICR mice; Staphylococcus aureus; conditions: single dose; for ED50: Staphylococcus aureus, 168 h, read-out: Protective Dose 50% (95% Confidence Limits); for times more efficacious than Win 35,439: S. aureus
Method: (§1) ICR mice, female, 18-20 grams each.
(§2) Solutions of Win 52,522 and Win 35,439 were prepared by dissolving the appropriate weight of drug in 0.3 to 0.4 ml of 1 N NaOH and then bringing the solutions to the desired volume with distilled water. Methicillin and vancomycin were dissolved directly in distilled water.
Two and one-half ml of pool were added to 247.5 ml of 5% gastric mucin to provide the test inoculum containing 2.1×10^4 cells/ml.
(§3) Mice were inoculated intraperitoneally with 0.5 ml of the bacterial test inoculum.
1. Single dose test--Mice were medicated subcutaneously or orally once (0.5 ml) one-half hour postinfection.
(§4) Deaths were recorded daily for seven days for all tests. Fifty percent protective dose values (PD50's) were calculated using probit analysis [SAS Users Guide: Statistics, 1982 Edition, SAS Institute, Inc., Cary, N.C.].

[2] = system: S. aureus; experiment: In vitro MIC/MBC summary (Table II); format: cell-based; conditions: Staphylococcus aureus, 15 S. aureus strains
Method: (§5) Win 52,522 and Win 35,439 were solubilized in 0.1 ml of 0.5 N NaOH/mg of compound and diluted in sterile distilled water to 160 mcg/ml. Vancomycin and methicillin were solubilized in sterile distilled water to 1250 mcg/ml of base compound. The stock solutions were sterilized by filtration through membrane filters with a 0.45 μm pore size.
(§6) The bacterial cultures listed in Table I (hereinbelow) were grown overnight at 37° C. in MHB for all cultures except the Streptococcus strains. These were grown in BHI+10% NHS. The overnight broth cultures were adjusted to an optical density of 0.10 (650 nm, B L Spectronic 20) in sterile distilled water and subsequently diluted to 6.7×10^6 cells/ml in MHB or BHI+1% NHS.
(§7) Serial two-fold dilutions of the compound solutions were prepared in MHB (or in BHI+1% NHS for tests with Streptococci) and dispensed into 96-well microtiter trays in a volume of 0.1 ml/well using a Sandy Springs (Bellco Glass Co.) dispenser. The trays were then inoculated with 0.0015 ml of a suspension containing 6.7×10^6 cells/ml of the appropriate inoculum using a MIC-2000 inoculator (Dynatech Corp.) resulting in a final inoculum of approximately 1×10^4 cells/well or 1×10^5 cells/ml. The trays were incubated at 37° C. for 18-20 hours and the minimal inhibitory concentration (MIC), defined as the lowest concentration of compound to inhibit visible bacterial growth, was recorded.
(§8) After the MIC values were recorded, the contents in the microtiter trays were thoroughly mixed on a Bellco Mini-orbital Shaker (Bellco Glass Co.) for 3 min. at a setting of 8. A portion (0.0015 ml) from each well was then transferred via an MIC-2000 inoculator to plates containing MHA or BHI agar+10% NHS. The plates were incubated at 37° C. for 18-20 hrs. The minimal bactericidal concentration (MBC), defined as the lowest concentration of compound that prevented the formation of a recognizable colony on the agar surface, was recorded.

[3] = system: Streptococcus sp.; experiment: In vitro MIC/MBC summary (Table II); format: cell-based
Method: as §5, §6, §7, §8

[4] = system: S. faecalis (8043); experiment: In vitro antibacterial MIC/MBC test; format: cell-based; conditions: Enterococcus faecalis, ATCC8043, S. faecalis ATCC No. 8043
Method in brief: (§9)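 Broth microdilution with two-fold serial dilutions in MHB (BHI+1% NHS for streptococci), final inoculum approx. 1×10^5 cells/ml, 37° C. for 18-20 hours. MIC is the lowest concentration preventing visible growth. For MBC, wells were subcultured onto MHA or BHI agar+10% NHS; the MBC is the lowest concentration yielding no recognizable colony.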

[5] = system: S. aureus 10-81; experiment: In vitro antibacterial MIC/MBC test; format: cell-based; conditions: Staphylococcus aureus, 1081, S. aureus 10-81
Method in brief: as §9

[6] = system: S. aureus 13-8-A; experiment: In vitro antibacterial MIC/MBC test; format: cell-based; conditions: Staphylococcus aureus, 138A, S. aureus 13-8-A
Method in brief: as §9

[7] = system: S. enterococcus 0-2-13; experiment: In vitro antibacterial MIC/MBC test; format: cell-based
Method in brief: as §9

[8] = system: S. pneumoniae Type I; experiment: In vitro antibacterial MIC/MBC test; format: cell-based; conditions: Streptococcus pneumoniae, S. pneumoniae Type I
Method in brief: as §9

[9] = system: S. aureus VA16951; experiment: In vitro antibacterial MIC/MBC test; format: cell-based; conditions: Staphylococcus aureus, S. aureus VA16951
Method in brief: as §9

[10] = system: S. aureus 34-81; experiment: In vitro antibacterial MIC/MBC test; format: cell-based; conditions: Staphylococcus aureus, 3481, S. aureus 34-81
Method in brief: as §9

[11] = system: Staphylococcus aureus 39881 (Methicillin-resistant); experiment: Mouse protection test, S. aureus 39881 (methicillin-resistant) infection; format: in vivo, ICR mice; Staphylococcus aureus; conditions: for Survivors/Total: two doses; for ED50: Staphylococcus aureus, 168 h, read-out: Protective Dose 50% (95% Confidence Limits); for ED50 / Protective Dose 50% (95% Confidence Limits): two doses one-half and four hours postinfection; for Protective Dose 50% (95% Confidence Limits): 10080 min
Method: as §1, §2
The culture was streaked onto three Brain Heart Infusion Agar plates and incubated 16 hours at 37° C. The cells were washed off each plate with five ml of saline and the cell suspension was shaken with glass beads for two minutes on a paint shaker. The suspension was diluted with saline so that a […] gave a 44% T reading on a B+L Spectronic 20 (650 nm) calibrated with saline. The stock suspension was diluted 1:24 (10 ml stock suspension+230 ml 5% mucin) to obtain the test inoculum containing 1.55×10^9 cells/ml.
as §3
Mice were medicated twice: at one-half and four hours postinfection. The drugs were administered by both subcutaneous (0.2 ml) and oral (0.5 ml) routes.
as §4

[12] = system: S. edidermidis; experiment: In vitro MIC/MBC summary (Table II); format: cell-based, S. epidermidis; conditions: Staphylococcus epidermidis, 5 S. edidermidis strains
Method: as §5, §6, §7, §8

CCn1cc(C(=O)O)c(=O)c2cc(F)c(-c3cc(C)nc(C)c3)cc21 [Win 52,522, 1-ethyl-6-fluoro-1,4-dihydro-7-(2,6-dimethyl-4-pyridinyl)-4-oxo-3-quinolinecarboxylic acid]
Survivors/Total ([1]; 0.095 mg/kg sc): 0/10 | Survivors/Total ([1]; 0.19 mg/kg po): 0/10 | Survivors/Total ([1]; 0.19 mg/kg sc): 0/10 | Survivors/Total ([1]; 0.39 mg/kg po): 0/10 | Survivors/Total ([1]; 0.39 mg/kg sc): 2/10 | Survivors/Total ([1]; 0.78 mg/kg po): 0/10 | Survivors/Total ([1]; 0.78 mg/kg sc): 4/10 | Survivors/Total ([1]; 1.56 mg/kg po): 7/10 | Survivors/Total ([1]; 1.56 mg/kg sc): 10/10 | Survivors/Total ([1]; 3.13 mg/kg po): 10/10 | ED50 ([1]; po): ~1.4 mg/kg | ED50 ([1]; sc): 0.8 mg/kg | times more efficacious than Win 35,439 ([1]; po): 3.9 times | times more efficacious than Win 35,439 ([1]; sc): 3.6 times | MBC ([2]; read-out: MBC Range): 0.015 to 0.06 µg/mL (≈ 0.0441 to 0.176 µM) | MIC50 ([2]; read-out: MIC 50%): 0.015 µg/mL (≈ 0.0441 µM) | MIC90 ([2]; read-out: MIC 90%): 0.03 µg/mL (≈ 0.0881 µM) | MIC ([2]; read-out: MIC Range): 0.008 to 0.03 µg/mL (≈ 0.0235 to 0.0881 µM) | MBC ([3]; 9 Streptococcus sp. strains, read-out: MBC 50%): 0.5 µg/mL (≈ 1.47 µM) | MBC ([3]; 9 Streptococcus sp. strains, read-out: MBC 90%): 0.5 µg/mL (≈ 1.47 µM) | MBC ([3]; 9 Streptococcus sp. strains, read-out: MBC Range): 0.125 to 0.5 µg/mL (≈ 0.367 to 1.47 µM) | MIC50 ([3]; 9 Streptococcus sp. strains, read-out: MIC 50%): 0.25 µg/mL (≈ 0.735 µM) | MIC ([3]; 9 Streptococcus sp. strains, read-out: MIC Range): 0.125 to 0.5 µg/mL (≈ 0.367 to 1.47 µM) | MIC90 ([3]; Streptococcus): 0.5 µg/mL (≈ 1.47 µM) | MBC ([4]; read-out: MBC): 0.5 µg/mL (≈ 1.47 µM) | MIC ([4]; read-out: MIC): 0.25 µg/mL (≈ 0.735 µM) | MBC ([5]; read-out: MBC): 0.03 µg/mL (≈ 0.0881 µM) | MIC ([5]; read-out: MIC): 0.03 µg/mL (≈ 0.0881 µM) | MBC ([6]; read-out: MBC): 0.03 µg/mL (≈ 0.0881 µM) | MIC ([6]; read-out: MIC): 0.03 µg/mL (≈ 0.0881 µM) | MBC ([7]; 0213, S. enterococcus 0-2-13, read-out: MBC): 0.25 µg/mL (≈ 0.735 µM) | MIC ([7]; 0213, S. enterococcus 0-2-13, read-out: MIC): 0.25 µg/mL (≈ 0.735 µM) | potency relative to vancomycin ([7]; in vitro, enterococcus strain 0-2-B): equal in potency | MBC ([8]; read-out: MBC): 0.25 µg/mL (≈ 0.735 µM) | MIC ([8]; read-out: MIC): 0.25 µg/mL (≈ 0.735 µM) | MBC ([9]; read-out: MBC): 0.015 µg/mL (≈ 0.0441 µM) | MIC ([9]; read-out: MIC): 0.015 µg/mL (≈ 0.0441 µM) | MBC ([10]; read-out: MBC): 0.03 µg/mL (≈ 0.0881 µM) | MIC ([10]; read-out: MIC): 0.03 µg/mL (≈ 0.0881 µM) | Survivors/Total ([11]; 0.19 mg/kg po): 0/10 | Survivors/Total ([11]; 0.19 mg/kg sc): 0/10 | Survivors/Total ([11]; 0.39 mg/kg po): 0/10 | Survivors/Total ([11]; 0.39 mg/kg sc): 0/10 | Survivors/Total ([11]; 0.78 mg/kg po): 1/10 | Survivors/Total ([11]; 0.78 mg/kg sc): 2/10 | Survivors/Total ([11]; 1.56 mg/kg po): 4/10 | Survivors/Total ([11]; 1.56 mg/kg sc): 10/10 | Survivors/Total ([11]; 3.13 mg/kg po): 10/10 | Survivors/Total ([11]; 3.13 mg/kg sc): 9/10 | Survivors/Total ([11]; 6.25 mg/kg po): 10/10 | Survivors/Total ([11]; 6.25 mg/kg sc): 10/10 | ED50 ([11]; po): 1.6 mg/kg | ED50 ([11]; sc): 1.1 mg/kg | times more efficacious than methicillin ([11]; methicillin-resistant S. aureus infection in mice): > 91 times | Protective Dose 50% (95% Confidence Limits) ([11]; po): 1.6(1.3-2.4) mg/kg | times more active than Win 35,439 ([11]; sc): 4.5 times | times more efficacious/active than vancomycin ([11]; sc): 16 times | Protective Dose 50% (95% Confidence Limits) ([11]; sc): 1.1(0.1-4.1) mg/kg | MBC ([12]; read-out: MBC 50%): 0.06 µg/mL (≈ 0.176 µM) | MBC ([12]; read-out: MBC 90%): 0.06 µg/mL (≈ 0.176 µM) | MBC ([12]; read-out: MBC Range): 0.03 to 0.125 µg/mL (≈ 0.0881 to 0.367 µM) | MIC50 ([12]; read-out: MIC 50%): 0.06 µg/mL (≈ 0.176 µM) | MIC90 ([12]; read-out: MIC 90%): 0.06 µg/mL (≈ 0.176 µM) | MIC ([12]; read-out: MIC Range): 0.03 to 0.06 µg/mL (≈ 0.0881 to 0.176 µM)
